Test results as given in US11384066B1, “Heterocyclic compounds useful as aurora a selective inhibitors” (Jacobio Pharmaceuticals Co., Ltd., priority 2020, dated 2022).

How the values were obtained:
Aurora B = Aurora B (Homo sapiens (Human), UniProt Q96GD4); test: Aurora B kinase assay (mobility shift assay); format: biochemical; conditions: ratio of Aurora B IC50 to Aurora A IC50
Protocol: (§1) Example A: Evaluation of Aurora a and Aurora B Inhibitory Effect—Kinase Assay
(§2) The inhibitory activities of a test compound against Aurora A and Aurora B were measured according to the following method.
(§3) The IC50 value of Aurora A and Aurora B kinase was performed by Sundia MediTech Co. Ltd. using Mobility shift assay.
(§4) • (1) Prepare a 1× kinase buffer [50 mM 4-(2-hydroxyethyl)-1-piperazineethanesulfonic acid (HEPES), PH 7.5, 0.01% Brij-35, 10 mM MgCl2, 2 mM dithiothreitol (DTT)]. • (2) Prepare compound:
(§5) The testing compound was dissolved with DMSO. The testing compound was diluted up to 100× final concentration in a 384-well plate. Transfer 250 nL of the compound dilution to a 384-well assay plate using Echo 550. 100% DMSO of 250 nL was added to the negative control well and the positive control well. • (3) Prepare a 2.5× enzyme solution using the above 1× kinase buffer. • (4) Add 10 μL of the 2.5× enzyme solution to the compound well and the positive control well of the 384-well assay plate. Add 10 μL of the 1× kinase buffer to the negative control well. • (5) The 384-well plate was centrifuged at 1000 rpm for 30 seconds and incubated at room temperature for 10 min. • (6) A mixture of ATP and Kinase substrate 21 with a final concentration of 25/15× was prepared by the 1× kinase buffer. • (7) Add 15 μL of the mixture of 25/15×ATP and kinase substrate solution 21 to start reaction. • (8) The 384-well plate was centrifuged at 1000 rpm for 30 seconds and incubated at room temperature. • (9) 30 μL of the stop and detection buffer was added to stop the kinase reaction and centrifuged at 1000 rpm for 30 seconds. • (10) Collect data on Caliper EZ ReaderII. Data Analysis:
(§6) Conversion %_sample is conversion rate data of samples. Conversion %_min is mean value of negative control (conversion rate data without enzyme activation). Conversion %_max is mean positive control (conversion rate data without compound).
(§7) The log of concentration is on the X axis, and the percentage inhibition is on the Y axis. Fit the Quantitative effect curves with log (inhibitor) vs. response—Variable slope in GraphPad Prism5 obtain IC50 values. Equation used is Y=Bottom+(Top−Bottom)/(1+10^((Log IC50−X)*HillSlope)).

Aurora A = Aurora A (Homo sapiens (Human), UniProt O14965); test: Aurora A kinase assay (mobility shift assay); format: biochemical
Protocol: as §1, §2, §3, §4, §5, §6, §7

Aurora B, sequence (Q96GD4 whole entry): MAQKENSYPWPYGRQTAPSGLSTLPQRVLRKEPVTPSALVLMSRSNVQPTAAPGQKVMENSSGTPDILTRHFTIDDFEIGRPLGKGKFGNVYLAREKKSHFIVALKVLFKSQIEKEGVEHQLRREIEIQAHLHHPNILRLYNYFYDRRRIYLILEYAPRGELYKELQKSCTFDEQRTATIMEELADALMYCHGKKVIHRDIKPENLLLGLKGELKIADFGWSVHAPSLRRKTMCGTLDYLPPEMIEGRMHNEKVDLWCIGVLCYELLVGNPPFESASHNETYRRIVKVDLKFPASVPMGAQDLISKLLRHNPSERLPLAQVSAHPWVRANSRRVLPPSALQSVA
Aurora A, sequence (O14965 whole entry): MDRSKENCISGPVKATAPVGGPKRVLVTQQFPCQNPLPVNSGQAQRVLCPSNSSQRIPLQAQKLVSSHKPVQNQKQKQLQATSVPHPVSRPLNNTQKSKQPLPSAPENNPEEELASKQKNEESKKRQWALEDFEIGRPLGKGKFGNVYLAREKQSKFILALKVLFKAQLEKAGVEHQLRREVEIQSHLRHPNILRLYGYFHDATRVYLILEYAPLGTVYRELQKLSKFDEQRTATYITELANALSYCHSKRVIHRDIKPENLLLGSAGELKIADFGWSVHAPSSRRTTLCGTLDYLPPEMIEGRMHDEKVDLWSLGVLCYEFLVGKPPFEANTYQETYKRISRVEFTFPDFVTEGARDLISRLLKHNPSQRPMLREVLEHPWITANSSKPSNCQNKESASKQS

SMILES | IC50 Ratio Aur B/Aur A (Aurora B) | IC50 (Aurora A) [nM]
Cc1cc(Nc2ccc(F)c(C[C@@]3(C(=O)O)CCN(Cc4cccc(F)c4F)[C@H](C)C3)n2)n[nH]1 [Example 15, (2R,4R)-1-(2,3-difluorobenzyl)-4-((3-fluoro-6-((5-methyl-1H-pyrazol-3-yl)amino)pyridin-2-yl)methyl)-2-methylpiperidine-4-carboxylic acid] | 1755 | 0.55
Cc1cc(Nc2nc(C[C@@]3(C(=O)O)CCN(Cc4cccc(Cl)c4F)[C@H](C)C3)cnc2C)n[nH]1 [Example 33, (2R,4R)-1-(3-chloro-2-fluorobenzyl)-2-methyl-4-((5-methyl-6-((5-methyl-1H-pyrazol-3-yl)amino)pyrazin-2-yl)methyl) piperidine-4-carboxylic acid] | 3757 | 1.5
Cc1cc(Nc2ncc(F)c(C[C@@]3(C(=O)O)CCN(Cc4cccc(Cl)c4F)[C@H](C)C3)n2)n[nH]1 [Example 26, (2R,4R)-1-(3-chloro-2-fluorobenzyl)-4-((5-fluoro-2-((5-methyl-1H-pyrazol-3-yl)amino)pyrimidin-4-yl)methyl)-2-methylpiperidine-4-carboxylic acid] | 1499 | 2.9
Cc1cc(Nc2nc(C[C@@]3(C(=O)O)CCN(Cc4cccc(Cl)c4F)[C@H](C)C3)cc(C#N)c2F)n[nH]1 [Example 90, (2R,4R)-1-(3-chloro-2-fluorobenzyl)-4-((4-cyano-5-fluoro-6-((5-methyl-1H-pyrazol-3-yl)amino)pyridin-2-yl)methyl)-2-methylpiperidine-4-carboxylic acid] | 1479 | 0.54
Cc1cc(Nc2nc(CC3(C(=O)O)CCN(Cc4cccc(Cl)c4F)CC3)c(F)cc2F)n[nH]1 [Example 92] | 4393 | 0.74
Cc1cc(Nc2cc(C#N)c(F)c(C[C@@]3(C(=O)O)CCN(Cc4cccc(Cl)c4F)[C@H](C)C3)n2)[nH]n1 [Example 67, (2R,4R)-1-(3-chloro-2-fluorobenzyl)-4-((4-cyano-3-fluoro-6-((3-methyl-1H-pyrazol-5-yl)amino)pyridin-2-yl)methyl)-2-methylpiperidine-4-carboxylic acid] | 759 | 1.6
Cc1cc(Nc2cc(C)c(F)c(CC3(C(=O)O)CCN(Cc4c(F)ccc(Cl)c4F)CC3)n2)n[nH]1 [Example 55, 1-(3-chloro-2,6-difluoro-benzyl)-4-((3-fluoro-4-methyl-6-((5-methyl-1H-pyrazol-3-yl)-amino)pyridin-2-yl)methyl) piperidine-4-carboxylic acid] | 3835 | 0.88
Cc1cc(Nc2ccc(F)c(C[C@@]3(C(=O)O)CCN(Cc4cccc(C)c4F)[C@H](C)C3)n2)n[nH]1 [Example 16, (2R,4R)-1-(2-fluoro-3-methylbenzyl)-4-((3-fluoro-6-((5-methyl-1H-pyrazol-3-yl)amino)pyridin-2-yl)methyl)-2-methylpiperidine-4-carboxylic acid] | 1812 | 1.7
Cc1cc(Nc2ccc(F)c(C[C@@]3(C(=O)O)CCN(S(=O)(=O)c4ccccc4C(F)(F)F)[C@H](C)C3)n2)n[nH]1 [Example 39, (2R,4R)-4-((3-fluoro-6-((5-methyl-1H-pyrazol-3-yl)amino)pyridin-2-yl)methyl)-2-methyl-1-((2-(trifluoromethyl)phenyl)sulfonyl)piperidine-4-carboxylic acid] | 3019 | 0.57
Cc1cc(Nc2ccc(F)c(C[C@@]3(C(=O)O)CCN(Cc4c(F)cccc4F)[C@H](C)C3)n2)n[nH]1 [Example 12, (2R,4R)-1-(2,6-difluorobenzyl)-4-((3-fluoro-6-((5-methyl-1H-pyrazol-3-yl)amino)pyridin-2-yl)methyl)-2-methylpiperidine-4-carboxylic acid] | 2560 | 2.4
Cc1cc(Nc2ccc(F)c(C[C@@]3(C(=O)O)CCN(Cc4cccc(C(F)(F)F)c4)[C@H](C)C3)n2)n[nH]1 [Example 21, (2R,4R)-4-((3-fluoro-6-((5-methyl-1H-pyrazol-3-yl)amino)pyridin-2-yl)methyl)-2-methyl-1-(3-(trifluoromethyl)benzyl) piperidine-4-carboxylic acid] | 1789 | 3.1
CCC1CC(Cc2nc(Nc3cc(C)[nH]n3)ccc2F)(C(=O)O)CCN1Cc1cccc(Cl)c1F (stereo not shown) [Example 2, 1-(3-chloro-2-fluorobenzyl)-2-ethyl-4-((3-fluoro-6-((5-methyl-1H-pyrazol-3-yl)amino)pyridin-2-yl)methyl)piperidine-4-carboxylic acid] | 1236 | 2.9
Cc1cc(Nc2ccc(F)c(C[C@@]3(C(=O)O)CCN(C(=O)Cc4cccc(Cl)c4F)[C@H](C)C3)n2)n[nH]1 [Example 38, (2R,4R)-1-(2-(3-chloro-2-fluorophenyl)acetyl)-4-((3-fluoro-6-((5-methyl-1H-pyrazol-3-yl)amino)pyri-din-2-yl)methyl)-2-methyl-piperidine-4-carboxylic acid] | 986 | 0.85
Cc1cc(Nc2ccc(F)c(CC3(C(=O)O)CCN(Cc4cccc(Cl)c4F)CC3)n2)n[nH]1 [Example 1, 1-(3-chloro-2-fluorobenzyl)-4-((3-fluoro-6-((5-methyl-1H-pyrazol-3-yl)amino)pyridin-2-yl)methyl)piperidine-4-carboxylic acid] | 2288 | 1.3
Cc1cc(Nc2nc(CC3(C(=O)O)CCN(Cc4cccc(Cl)c4F)CC3)cc(C)c2F)n[nH]1 [Example 79, 1-(3-chloro-2-fluorobenzyl)-4-((5-fluoro-4-methyl-6-((5-methyl-1H-pyrazol-3-yl)amino)-pyridin-2-yl)methyl)piper-idine-4-carboxylic acid] | 2036 | 0.61
Cc1cc(Nc2ccc(Cl)c(C[C@@]3(C(=O)O)CCN(Cc4cccc(Cl)c4F)[C@H](C)C3)n2)n[nH]1 [Example 11, (2R,4R)-1-(3-chloro-2-fluorobenzyl)-4-((3-chloro-6-((5-methyl-1H-pyrazol-3-yl)amino)pyridin-2-yl)methyl)-2-methylpiperidine-4-carboxylic acid] | 2264 | 0.64
Cc1cc(Nc2nc(C[C@@]3(C(=O)O)CCN(Cc4cccc(Cl)c4F)[C@H](C)C3)c(F)c(Cl)c2F)n[nH]1 [Example 74] | 3358 | 0.67
Cc1cc(Nc2cc(C)c(F)c(CC3(C(=O)O)CCN(Cc4cccc(Cl)c4F)CC3)n2)n[nH]1 [Example 51, 1-(3-chloro-2-fluorobenzyl)-4-((3-fluoro-4-methyl-6-((5-methyl-1H-pyrazol-3-yl)amino)-pyridin-2-yl)methyl)piper-idine-4-carboxylic acid] | 2833 | 0.22
Cc1cc(Nc2ccc(F)c(C[C@@]3(C(=O)O)CCN(Cc4c(Cl)cccc4Cl)[C@H](C)C3)n2)n[nH]1 [Example 17, (2R,4R)-1-(2,6-dichlorobenzyl)-4-((3-fluoro-6-((5-methyl-1H-pyrazol-3-yl)amino)pyridin-2-yl)methyl)-2-methylpiperidine-4-carboxylic acid] | 2974 | 3.2
Cc1[nH]nc(Nc2ccc(F)c(CC3(C(=O)O)CCN(Cc4cccc(Cl)c4F)C(C)C3)n2)c1C (stereo not shown) [Example 102, 1-(3-chloro-2-fluorobenzyl)-4-((6-((4,5-dimethyl-1H-pyrazol-3-yl)-amino)-3-fluoropyridin-2-yl)-methyl)-2-methylpiperidine-4-carb-oxylic acid] | 804 | 0.93
Cc1cc(Nc2cc(C)c(F)c(CC3(C(=O)O)CCN(Cc4cccc(F)c4F)CC3)n2)n[nH]1 [Example 52] | 1285 | 1.3
Cc1cc(Nc2nc(C[C@@]3(C(=O)O)CCN(Cc4cccc(Cl)c4F)[C@H](C)C3)c(F)c(Cl)c2Cl)n[nH]1 [Example 84, (2R,4R)-1-(3-chloro-2-fluorobenzyl)-4-((4,5-dichloro-3-fluoro-6-((5-methyl-1H-pyrazol-3-yl)amino)pyridin-2-yl)methyl)-2-methylpiperidine-4-carboxylic acid] | 4026 | 1.4
Cc1cc(Nc2ccc(F)c(C[C@@]3(C(=O)O)CCN(Cc4ccc(F)c(Cl)c4F)[C@H](C)C3)n2)n[nH]1 [Example 27, (2R,4R)-1-(3-chloro-2,4-difluorobenzyl)-4-((3-fluoro-6-((5-methyl-1H-pyrazol-3-yl)amino)pyridin-2-yl)methyl)-2-methylpiperidine-4-carboxylic acid] | 622 | 0.81
